# Experimental data published in ChEMBL document CHEMBL1201862, “PubChem BioAssay data set” (2004).
# Activity calls are given as the source filed them.
# Experiments:
# [1] = molecular target: T1, Calpain-2 catalytic subunit (Sus scrofa, UniProt P43367); assay: m-calpain protease blockers, concentration series – biochemical, fluorogenic peptide substrate, dose response (AID 1420); format: functional
# T1 sequence (P43367 whole entry): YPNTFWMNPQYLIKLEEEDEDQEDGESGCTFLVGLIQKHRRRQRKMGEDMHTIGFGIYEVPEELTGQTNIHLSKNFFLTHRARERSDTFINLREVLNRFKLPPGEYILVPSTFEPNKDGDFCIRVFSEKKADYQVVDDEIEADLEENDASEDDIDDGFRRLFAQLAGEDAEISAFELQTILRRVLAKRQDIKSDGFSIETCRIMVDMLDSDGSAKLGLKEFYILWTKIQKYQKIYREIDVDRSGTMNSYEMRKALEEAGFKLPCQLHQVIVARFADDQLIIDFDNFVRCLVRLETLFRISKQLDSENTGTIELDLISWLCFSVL
# [2] = molecular target: T2, Heat shock factor protein 1 (Mus musculus, UniProt P38532); assay: enhancement of HSF1-driven luciferase signal – cell-based, NIH3T3, luminescence, dose retest, confirmation (AID 435004); format: functional;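 further: stress induced by proteasome inhibitor MG132 added 30 min after compound; luciferase reporter driven by HSF1 response element in NIH3T3 cells; actives raise luminescence as potentiators of the MG132 stress response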
# T2 sequence (P38532 whole entry): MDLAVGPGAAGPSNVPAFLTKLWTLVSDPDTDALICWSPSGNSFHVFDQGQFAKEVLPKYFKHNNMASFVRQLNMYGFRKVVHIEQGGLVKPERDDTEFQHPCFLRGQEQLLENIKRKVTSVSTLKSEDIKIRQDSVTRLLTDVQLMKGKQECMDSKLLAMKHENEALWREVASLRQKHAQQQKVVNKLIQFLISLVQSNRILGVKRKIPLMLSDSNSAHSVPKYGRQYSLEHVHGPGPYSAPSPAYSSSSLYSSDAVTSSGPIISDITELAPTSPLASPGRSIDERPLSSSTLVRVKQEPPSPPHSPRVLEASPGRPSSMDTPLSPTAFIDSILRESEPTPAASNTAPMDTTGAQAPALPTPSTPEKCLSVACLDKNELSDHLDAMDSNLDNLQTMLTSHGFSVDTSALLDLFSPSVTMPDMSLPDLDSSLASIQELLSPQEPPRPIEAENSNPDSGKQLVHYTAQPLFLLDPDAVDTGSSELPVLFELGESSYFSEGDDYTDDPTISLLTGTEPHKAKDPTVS
# [3] = molecular target: T3, Rac GTPase-activating protein 1 (Homo sapiens, UniProt Q9H0H5); assay: blockers of MgcRacGAP-driven Rac1 GTP hydrolysis – biochemical, ADP Hunter fluorescence, primary and confirmatory, confirmation (AID 624330); format: functional
# T3 sequence (Q9H0H5 whole entry): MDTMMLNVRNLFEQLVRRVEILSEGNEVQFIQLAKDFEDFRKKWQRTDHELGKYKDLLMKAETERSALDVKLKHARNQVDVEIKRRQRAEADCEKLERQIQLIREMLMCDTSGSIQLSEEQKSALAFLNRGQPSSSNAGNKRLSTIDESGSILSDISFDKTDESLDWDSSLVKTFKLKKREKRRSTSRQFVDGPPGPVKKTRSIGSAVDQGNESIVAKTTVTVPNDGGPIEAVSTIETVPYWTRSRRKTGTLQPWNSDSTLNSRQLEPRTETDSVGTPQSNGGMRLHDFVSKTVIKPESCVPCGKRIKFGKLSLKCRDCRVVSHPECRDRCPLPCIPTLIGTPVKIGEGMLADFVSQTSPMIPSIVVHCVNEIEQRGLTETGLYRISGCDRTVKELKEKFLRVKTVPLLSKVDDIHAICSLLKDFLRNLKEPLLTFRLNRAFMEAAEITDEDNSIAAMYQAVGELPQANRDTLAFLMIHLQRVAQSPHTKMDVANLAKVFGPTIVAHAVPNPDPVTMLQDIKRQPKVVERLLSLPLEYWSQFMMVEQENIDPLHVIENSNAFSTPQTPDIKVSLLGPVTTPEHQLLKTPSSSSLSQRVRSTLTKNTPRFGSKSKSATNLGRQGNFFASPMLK
# [4] = molecular target: T4, Carboxy-terminal domain RNA polymerase II polypeptide A small phosphatase 1 (Homo sapiens, UniProt Q9GZU7); assay: CTDSP1 inhibitors, concentration-response, biochemical, absorbance readout, ultra-high-throughput screen actives (AID 540297); format: functional
# T4 sequence (Q9GZU7 whole entry): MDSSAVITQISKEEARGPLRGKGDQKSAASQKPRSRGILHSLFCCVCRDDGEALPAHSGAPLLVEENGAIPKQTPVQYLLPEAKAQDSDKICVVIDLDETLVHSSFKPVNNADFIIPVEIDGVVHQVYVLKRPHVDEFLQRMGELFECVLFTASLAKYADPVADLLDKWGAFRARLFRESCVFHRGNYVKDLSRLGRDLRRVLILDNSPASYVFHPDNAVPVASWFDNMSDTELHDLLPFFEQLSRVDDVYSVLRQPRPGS
# [5] = molecular target: T5, Polyadenylate-binding protein 1 (Homo sapiens, UniProt P11940); assay: MLLE binding blockers, Cy5 peptide tracer – biochemical, fluorescence polarization, Cy5-PAM2 peptide, secondary, miRNA deadenylation inhibitor project, dose response (AID 602260); format: functional; conditions: read-out: IC50_Mean
# [6] = molecular target: T5, Polyadenylate-binding protein 1; assay: MLLE domain peptide-binding blockers, IC50 – biochemical, fluorescence polarization, FITC-PAM2 peptide, dose response (AID 602259); format: functional; conditions: read-out: IC50_Mean
# BJ [7] = assay: BJ-TERT fibroblast viability loss – cell-based, RAS-independent, luminescence, dose response (AID 1933); format: functional; conditions: Homo sapiens
# BJ [8] = assay: cells; format: functional, cell-based; conditions: Homo sapiens
# BJ [9] = assay: BJ-TERT-LT-ST fibroblast viability loss – cell-based, RAS-independent, luminescence, dose response (AID 1935); format: functional; conditions: Homo sapiens;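 further: BJ fibroblasts immortalized with TERT plus LT and ST oncogenes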
# [10] = DRD fibroblast viability loss – cell-based, non-viral oncogenic, luminescence, dose response (AID 1934); format: functional; conditions: Homo sapiens
# [11] = NIH-3T3 fibroblast cytotoxicity, dose response, cytotoxicity control, cell-based, fluorescence, Alamar Blue, secondary assay (AID 2327); format: functional;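 further: NIH-3T3 mouse fibroblasts cultured with fluconazole at 8 µg/mL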
# [12] = fluconazole-exposed Candida albicans growth modulators – fluorescence, retest, confirmation (AID 2467); format: functional, cell-based
# [13] = HIV-1 AD8 envelope cell-cell fusion blockers – cherry-pick, dose response (AID 652062); format: functional, cell-based;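 further: luciferase signal from cell-cell fusion driven by HIV-1 clade B AD8 Env; potency is for inhibitors of fusion seen as a drop in luminescence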
# Cytochrome P450 3A4 = Cytochrome P450 3A4 (Homo sapiens, UniProt P08684);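 further: CYP3A4 tested as one member of a cytochrome P450 panel screen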
# Paired box protein Pax-8 = Paired box protein Pax-8 (Homo sapiens, UniProt Q06710); assay: PAX8 transcriptional activity inhibition in RMG-I – RMG-I cells, luciferase, cherry-pick, dose response (AID 687027); format: functional, cell-based;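 further: luciferase reporter driven by Pax8 target thyroperoxidase promoter measured by SteadyGlo luminescence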
# Cytochrome P450 2D6 = Cytochrome P450 2D6 (Homo sapiens, UniProt P10635);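 further: CYP2D6 member of a cytochrome P450 panel assay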
# [14] = Luminescence Cell-Based Dose Response HTS to Identify Activators of Luciferase Translation or Activity in H4 […] Cells. [Related pubchem assays: 1829 (Project Summary), 1814 (Primary HTS)]; format: functional
# T5 sequence (P11940 whole entry, the tested form may be a part): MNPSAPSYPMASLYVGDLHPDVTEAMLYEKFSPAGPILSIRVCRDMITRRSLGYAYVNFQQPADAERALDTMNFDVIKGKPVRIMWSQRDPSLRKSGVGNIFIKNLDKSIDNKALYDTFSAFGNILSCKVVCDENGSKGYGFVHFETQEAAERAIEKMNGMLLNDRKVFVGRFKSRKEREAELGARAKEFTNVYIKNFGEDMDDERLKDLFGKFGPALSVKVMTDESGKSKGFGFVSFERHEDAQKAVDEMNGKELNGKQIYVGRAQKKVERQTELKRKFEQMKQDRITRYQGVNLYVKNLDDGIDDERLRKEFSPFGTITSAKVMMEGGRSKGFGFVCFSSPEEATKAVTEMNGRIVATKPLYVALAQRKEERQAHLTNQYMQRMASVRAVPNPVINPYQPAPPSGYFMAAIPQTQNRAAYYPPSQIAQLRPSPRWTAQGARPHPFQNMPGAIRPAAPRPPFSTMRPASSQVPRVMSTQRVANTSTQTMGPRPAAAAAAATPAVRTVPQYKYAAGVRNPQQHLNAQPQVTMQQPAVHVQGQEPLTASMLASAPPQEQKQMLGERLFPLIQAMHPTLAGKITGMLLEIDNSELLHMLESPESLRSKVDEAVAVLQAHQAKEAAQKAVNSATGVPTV
# Paired box protein Pax-8, sequence (Q06710 whole entry): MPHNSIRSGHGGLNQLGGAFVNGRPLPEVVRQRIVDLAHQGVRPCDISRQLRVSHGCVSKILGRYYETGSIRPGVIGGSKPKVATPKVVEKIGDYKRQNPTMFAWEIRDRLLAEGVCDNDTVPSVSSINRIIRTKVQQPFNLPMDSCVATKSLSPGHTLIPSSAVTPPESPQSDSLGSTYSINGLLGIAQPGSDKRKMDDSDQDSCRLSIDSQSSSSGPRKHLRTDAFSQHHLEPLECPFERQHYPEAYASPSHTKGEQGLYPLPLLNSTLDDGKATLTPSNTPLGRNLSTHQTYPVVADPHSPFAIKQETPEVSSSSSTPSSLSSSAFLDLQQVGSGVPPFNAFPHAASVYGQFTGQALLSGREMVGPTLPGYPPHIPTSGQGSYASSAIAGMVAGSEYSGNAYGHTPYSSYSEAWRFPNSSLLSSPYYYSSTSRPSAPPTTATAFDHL
# Cytochrome P450 3A4, sequence (P08684 whole entry): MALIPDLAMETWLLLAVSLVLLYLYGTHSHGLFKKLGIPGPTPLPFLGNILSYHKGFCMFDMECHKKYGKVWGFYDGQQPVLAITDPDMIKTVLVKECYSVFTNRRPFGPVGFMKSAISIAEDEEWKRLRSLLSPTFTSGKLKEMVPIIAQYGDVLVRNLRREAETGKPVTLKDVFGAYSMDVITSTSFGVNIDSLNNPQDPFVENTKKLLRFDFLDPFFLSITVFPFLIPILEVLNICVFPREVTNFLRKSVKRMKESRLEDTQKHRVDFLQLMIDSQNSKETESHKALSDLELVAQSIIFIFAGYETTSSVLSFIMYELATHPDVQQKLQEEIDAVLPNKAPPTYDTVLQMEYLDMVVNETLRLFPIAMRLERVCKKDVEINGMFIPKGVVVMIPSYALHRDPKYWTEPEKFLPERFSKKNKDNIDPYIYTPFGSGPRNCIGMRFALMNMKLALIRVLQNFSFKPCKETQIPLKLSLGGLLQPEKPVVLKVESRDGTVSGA
# Cytochrome P450 2D6, sequence (P10635 whole entry): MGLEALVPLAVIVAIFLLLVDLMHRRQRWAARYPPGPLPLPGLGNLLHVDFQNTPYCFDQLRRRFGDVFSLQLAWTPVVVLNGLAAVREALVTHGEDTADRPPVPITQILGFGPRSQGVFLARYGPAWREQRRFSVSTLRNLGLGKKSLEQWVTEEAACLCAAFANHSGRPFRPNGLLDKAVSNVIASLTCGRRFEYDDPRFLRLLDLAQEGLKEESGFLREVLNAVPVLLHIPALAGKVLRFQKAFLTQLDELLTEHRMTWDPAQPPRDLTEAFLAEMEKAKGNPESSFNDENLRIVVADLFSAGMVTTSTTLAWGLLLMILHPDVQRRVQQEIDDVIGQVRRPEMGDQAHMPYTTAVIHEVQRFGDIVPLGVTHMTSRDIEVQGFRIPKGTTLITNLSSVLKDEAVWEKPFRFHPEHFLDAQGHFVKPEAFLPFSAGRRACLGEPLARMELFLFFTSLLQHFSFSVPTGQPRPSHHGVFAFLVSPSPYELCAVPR
compound,measurement,setting,value
Cc1ccc(NC2OC(CO)C(O)C2O)cc1[N+](=O)[O-] (centres undefined),IC50,[1],> 50 µM (not active)
same,EC50,[2],> 260 µM (inactive)
COc1cc(CNc2nc(C)c([N+](=O)[O-])c(C)c2C#N)cc(OC)c1,IC50,[1],1.63 µM (not active)
c1ccc(CNC23CC4CC(CC(C4)C2)C3)nc1,IC50,[3],110 µM (active)
O=C(CCS(=O)(=O)c1ccc(Br)cc1)NC1CCCC1,IC50,[4],9.44 µM (active)
CCCCOC(=O)c1ccc(NC(=O)c2c(Cl)ccc(Cl)c2OC)cc1,IC50,[1],10.8 µM (not active)
CCOC(=O)c1c(-c2ccc(C)o2)csc1NC(=S)NC(=O)c1ccc(F)cc1,IC50,[5],> 66 µM (inactive)
same,IC50,[6],> 66 µM (inactive)
CC[N+]1(C)CC2CCC(C)(C1)C2(C)C (centres undefined),IC50,[4],27.8 µM (active)
CC(=O)/C(C#N)=C1\NC(=O)C(Cc2cc(Cl)ccc2Cl)S1 (centres undefined),EC50,BJ [7],> 150 µM (not active)
same,EC50,BJ [8],61.2 µM (active)
same,EC50,BJ [9],> 150 µM (not active)
same,EC50,[10],76.8 µM (active)
O=C(N/C(=C\c1ccco1)C(=O)N1CCCC1CO)c1ccccc1 (centres undefined),IC50,[5],> 66 µM (inactive)
same,IC50,[6],> 66 µM (inactive)
CCCCC1=CC2=C(c3ccco3)C(=O)C(C)(OC(=O)c3ccc(OC)cc3)C(=O)C2=CN1c1ccc(OC)cc1 (centres undefined),EC50,BJ [7],47.1 µM (active)
same,EC50,BJ [8],> 150 µM (not active)
same,EC50,BJ [9],> 150 µM (inconclusive)
same,EC50,[10],> 150 µM (not active)
O=C(CSc1ccc(-c2cccnc2)nn1)c1ccc([N+](=O)[O-])cc1,IC50,[5],> 66 µM (inactive)
same,IC50,[6],> 66 µM (inactive)
CCCCC(=O)OCC(=O)c1[nH]c(C)c(C(=O)OCC)c1C,EC50,[2],> 260 µM (inactive)
CSCc1ccc(C(=O)N2CCCC(Nc3ccc4c(c3)OCCO4)C2)o1 (centres undefined),IC50,[3],152 µM (active)
C=CC[n+]1c(-c2ccc(C)cc2)csc1NNC(=O)Nc1ccccc1,EC50,[11],> 150 µM (inconclusive)
same,EC50,[12],1.27 µM (active)
same,AC50,[13],9.27 µM (active)
same,AC50,Cytochrome P450 3A4,3.55 µM (inconclusive)
Cc1noc(/C=C/c2ccco2)c1S(=O)(=O)N1CCC(C(=O)NC(C)c2ccccc2)CC1 (centres undefined),AC50,Paired box protein Pax-8,0.931 µM (active)
COc1cccc(OC)c1OCCCN1CCOCC1,IC50,[3],162 µM (active)
same,AC50,Cytochrome P450 2D6,39.8 µM (inconclusive)
CC(=O)c1ccc(NC(=O)C2CCCNC2=O)cc1 (centres undefined),IC50,[5],> 66 µM (inactive)
same,IC50,[6],> 66 µM (inactive)
O=C(CSc1nnc(Nc2ccccc2F)s1)NC(=O)CN1CCCC1=O,IC50,[4],5.43 µM (active)
Cc1cccc(N=Nc2c(O)nc(O)c(C#N)c2C)c1,EC50,[2],258 µM (active)
Cc1noc(C)c1COc1ccc(C(=O)OCc2nnc(-c3ccc(Cl)cc3)o2)cc1,IC50,[1],4.47 µM (not active)
COc1ccc(CCNCc2ccc(Br)cc2)cc1OC,EC50,[2],> 260 µM (inactive)
COc1ccc(N2CCN(C(=O)Nc3ccc(S(=O)(=O)N(C)C)cc3)CC2)cc1,IC50,[1],< 0.4 µM (not active)
O=C(COC(=O)c1ccccc1O)NCc1ccco1,IC50,[4],9.53 µM (active)
N#CC1=C(S)N(c2ccccc2)C(c2ccc(-c3ccccc3Cl)o2)NC1=O (centres undefined),IC50,[3],99.8 µM (active)
O=C(CN1C(=O)NC(Cc2ccccc2)C1=O)Nc1ccccc1 (centres undefined),IC50,[1],17.4 µM (not active)
COc1ccnc(Oc2ccc3ccccc3c2)c1C#N,IC50,[1],> 50 µM (not active)
COc1cccc(/C=C2\SC(=O)N(CC(=O)NC3C=CS(=O)(=O)C3)C2=O)c1 (centres undefined),IC50,[5],> 66 µM (inactive)
same,IC50,[6],56.6 µM (inactive)
COc1ccc(NC(S)=NCCc2c(C)[nH]c3ccc(OC)cc23)cc1,IC50,[1],30.1 µM (not active)
O=C(Nc1c(C(=O)c2ccccc2)oc2ccccc12)c1cc(-c2ccccc2O)n[nH]1,EC50,[2],> 260 µM (inactive)
CN(NC(=O)c1ccccc1F)c1nc(C(F)(F)F)nc2ccccc12,EC50,BJ [7],0.667 µM (inconclusive)
same,EC50,BJ [8],0.813 µM (active)
same,EC50,BJ [9],0.428 µM (inconclusive)
same,EC50,[10],0.628 µM (active)
Cc1ccc(CCC(=O)Nc2ncc(Cc3cccc(Cl)c3Cl)s2)o1,EC50,BJ [7],0.311 µM (active)
same,EC50,BJ [8],0.668 µM (active)
same,EC50,BJ [9],0.216 µM (inconclusive)
same,EC50,[10],0.381 µM (active)
Cc1ccc(C)c(S(=O)(=O)N2CCN(CC(=O)N3CCc4ccccc4C3)CC2)c1,IC50,[3],93 µM (active)
Cc1ccc(-n2c(C)cc(C(=O)COC(=O)c3c(C)noc3C)c2C)cc1,EC50,[14],0.413 µM (active)
Cc1noc(C)c1COC(=O)C(c1ccccc1)c1ccccc1,IC50,[1],11.3 µM (not active)
O=C(Nc1ccc2c(c1)C(=O)NC2=O)c1cccc(C(F)(F)F)c1,IC50,[4],9.33 µM (active)
CC(=O)CC(=O)Nc1ccc(Nc2ccccc2)cc1,IC50,[3],178 µM (active)
COc1ccc(NC2CCCN(C(=O)c3ccc(C)nc3)C2)cc1 (centres undefined),IC50,[3],161 µM (active)
C[C@H](CO)N1C[C@H](C)[C@H](CN(C)Cc2ccc3c(c2)OCO3)Oc2ccc(NC(=O)Nc3cccc4ccccc34)cc2C1=O,AC50,Paired box protein Pax-8,26.5 µM (active)
O=C(N/N=C/c1ccncc1)c1ccc(NC(=O)c2cccc(Cl)c2)cc1,IC50,[4],13.9 µM (active)
COc1cc(/C=N/N2C(=O)c3ccccc3C2=O)ccc1O,IC50,[3],50.2 µM (active)
CCOc1cc(/C=N/NC(=O)C(OC)c2ccccc2)ccc1O (centres undefined),IC50,[3],54.9 µM (active)
O=C1ON=C(c2ccccc2)/C1=C/c1ccco1,IC50,[3],91 µM (active)
